SMILES strings stand for the structures.

For 14 compounds, Kd, IC50 and Selectivity results are on record in US20250152585A1, “PHARMACEUTICAL COMPOUND” (Duke Street Bio Limited, priority 2022, published 2025).

T1 sequence (Q9UGN5 whole entry, the tested form may be a part): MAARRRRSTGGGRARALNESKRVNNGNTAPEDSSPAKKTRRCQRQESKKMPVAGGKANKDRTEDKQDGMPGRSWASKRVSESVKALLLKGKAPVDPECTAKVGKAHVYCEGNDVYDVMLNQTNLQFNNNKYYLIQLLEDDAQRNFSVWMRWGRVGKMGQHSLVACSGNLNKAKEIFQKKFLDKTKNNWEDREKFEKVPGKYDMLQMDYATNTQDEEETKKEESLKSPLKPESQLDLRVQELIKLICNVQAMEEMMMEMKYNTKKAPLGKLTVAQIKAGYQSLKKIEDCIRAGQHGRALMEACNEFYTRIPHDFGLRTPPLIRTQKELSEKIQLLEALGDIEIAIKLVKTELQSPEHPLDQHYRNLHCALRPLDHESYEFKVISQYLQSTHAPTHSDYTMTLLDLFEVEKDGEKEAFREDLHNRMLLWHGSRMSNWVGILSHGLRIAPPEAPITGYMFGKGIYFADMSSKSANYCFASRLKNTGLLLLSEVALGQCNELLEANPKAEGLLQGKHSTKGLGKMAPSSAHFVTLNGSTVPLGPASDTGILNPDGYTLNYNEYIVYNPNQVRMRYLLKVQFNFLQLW
T2 sequence (P09874 whole entry): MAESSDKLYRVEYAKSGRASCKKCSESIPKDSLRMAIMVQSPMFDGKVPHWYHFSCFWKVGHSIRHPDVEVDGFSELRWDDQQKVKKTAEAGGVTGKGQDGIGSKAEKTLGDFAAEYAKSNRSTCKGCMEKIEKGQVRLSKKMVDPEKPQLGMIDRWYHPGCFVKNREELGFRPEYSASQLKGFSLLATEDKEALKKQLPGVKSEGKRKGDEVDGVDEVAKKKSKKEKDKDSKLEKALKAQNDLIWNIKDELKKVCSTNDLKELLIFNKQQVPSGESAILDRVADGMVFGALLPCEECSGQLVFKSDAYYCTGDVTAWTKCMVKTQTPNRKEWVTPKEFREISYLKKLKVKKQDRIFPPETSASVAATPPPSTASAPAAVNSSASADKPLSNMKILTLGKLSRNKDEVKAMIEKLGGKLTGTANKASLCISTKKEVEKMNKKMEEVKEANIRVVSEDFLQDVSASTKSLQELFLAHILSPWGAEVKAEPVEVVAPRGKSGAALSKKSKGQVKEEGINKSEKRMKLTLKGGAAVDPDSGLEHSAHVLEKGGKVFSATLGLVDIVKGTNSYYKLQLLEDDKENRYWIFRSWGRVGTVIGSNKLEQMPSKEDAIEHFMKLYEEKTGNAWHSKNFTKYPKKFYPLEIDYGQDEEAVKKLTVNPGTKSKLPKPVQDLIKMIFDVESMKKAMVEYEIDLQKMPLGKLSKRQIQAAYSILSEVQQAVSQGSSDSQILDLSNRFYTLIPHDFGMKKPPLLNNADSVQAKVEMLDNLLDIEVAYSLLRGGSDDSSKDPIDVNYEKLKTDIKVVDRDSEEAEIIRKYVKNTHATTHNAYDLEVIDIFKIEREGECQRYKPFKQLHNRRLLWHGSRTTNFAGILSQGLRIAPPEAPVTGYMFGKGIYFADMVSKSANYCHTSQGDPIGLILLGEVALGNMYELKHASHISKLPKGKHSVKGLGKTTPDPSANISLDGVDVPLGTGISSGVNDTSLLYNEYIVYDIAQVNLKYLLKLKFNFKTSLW

One assay addresses T1, N-terminally FLAG-tagged PARP2 (amino acids 1-583) (Homo sapiens, UniProt Q9UGN5).
T1 construct: N-terminally FLAG-tagged PARP2 (amino acids 1-583)
As to the kind of experiment: PARP2 probe displacement HTRF assay. Conditions: binned Kd, PARP2 probe displacement HTRF. It counts as binding. The method, then: Data analysis was performed identical as for PARP1.
`CNC(=O)c1ccc(N2CCC(N3CCC(c4nc5cc(F)ccc5c(=O)[nH]4)C3)CC2)cn1` (single isomer, unassigned) [Compound 92b] returned a Kd of 1 to 10 µM.
`CNC(=O)c1ccc(N2CCC(N3CCCC(c4nc5ccncc5c(=O)[nH]4)C3)CC2)cn1` (single isomer, unassigned) [Compound 93a] showed a Kd greater than 10 µM.
Regarding `CNC(=O)c1ccc(N2CCC(N3CCCC(c4nc5ccncc5c(=O)[nH]4)C3)CC2)cn1` (single isomer, unassigned) [Compound 93b], the Kd is greater than 10 µM.
The same measure, in the same setting: then `CNC(=O)c1ccc(N2CCC(N3CCCC(c4nc5ccccc5c(=O)[nH]4)C3)CC2)c(Cl)n1` (single isomer, unassigned) [Compound 94a], with 1 to 10 µM; and `CNC(=O)c1ccc(N2CCC(N3CCCC(c4nc5ccccc5c(=O)[nH]4)C3)CC2)c(Cl)n1` (single isomer, unassigned) [Compound 94b], with greater than 10 µM; and `CNC(=O)c1cnc(N2CCC(N3CCC(c4nc5ccccc5c(=O)[nH]4)C3)CC2)cn1` (single isomer, unassigned) [Compound 96a], with 1 to 10 µM.
Still for that read-out and setting: for `CNC(=O)c1cnc(N2CCC(N3CCC(c4nc5ccccc5c(=O)[nH]4)C3)CC2)cn1` (single isomer, unassigned) [Compound 96b] the value was 0.1 to 1 µM; for `CNC(=O)c1ccc(N2CCC(N3CCC(c4nc(C)cc(=O)[nH]4)C3)CC2)cn1` (single isomer, unassigned) [Compound 97a], greater than 10 µM.
`CNC(=O)c1ccc(N2CCC(N3CCC(c4nc(C)cc(=O)[nH]4)C3)CC2)cn1` (single isomer, unassigned) [Compound 97b] displayed a Kd greater than 10 µM.
In turn, `CNC(=O)c1ccc(N2CCC(N3CCCC(c4nc5ncccc5c(=O)[nH]4)C3)CC2)cn1` (single isomer, unassigned) [Compound 98a] registered a Kd greater than 10 µM.
`CNC(=O)c1ccc(N2CCC(N3CCCC(c4nc5ncccc5c(=O)[nH]4)C3)CC2)cn1` (single isomer, unassigned) [Compound 98b] yielded a Kd greater than 10 µM.
`CNC(=O)c1cnc(N2CCC(N3CCCC(c4nc5ccccc5c(=O)[nH]4)C3)CC2)cn1` (single isomer, unassigned) [Compound 99a] registered a Kd greater than 10 µM.
For the compound `CNC(=O)c1cnc(N2CCC(N3CCCC(c4nc5ccccc5c(=O)[nH]4)C3)CC2)cn1` (single isomer, unassigned) [Compound 99b], the Kd was in the range of 0.1 to 1 µM.
Take `CNC(=O)c1ccc(N2CCC(N3CCCC(c4cc5ccccc5c(=O)[nH]4)C3)CC2)cn1` (single isomer, unassigned) [Compound 100a]: the Kd was in the range of 0.1 to 1 µM.

A further assay addresses T2, full length N-terminally FLAG-tagged PARP1 (Homo sapiens, UniProt P09874). As to the kind of experiment: PARP1 biochemical DELFIA assay (auto-PARylation). Details: recombinant full length human N-terminally FLAG-tagged PARP1. Particulars: binned IC50, PARP1 biochemical DELFIA assay.
As to `CNC(=O)c1ccc(N2CCC(N3CCC(c4nc5cc(F)ccc5c(=O)[nH]4)C3)CC2)cn1` (single isomer, unassigned) [Compound 92b], the 50% inhibitory concentration (IC50) was 10 to 100 nM.
As to `CNC(=O)c1ccc(N2CCC(N3CCCC(c4nc5ccncc5c(=O)[nH]4)C3)CC2)cn1` (single isomer, unassigned) [Compound 93a], the IC50 lay in the range of 100 to 1000 nM.
On to `CNC(=O)c1ccc(N2CCC(N3CCCC(c4nc5ccncc5c(=O)[nH]4)C3)CC2)cn1` (single isomer, unassigned) [Compound 93b], for which the IC50 lay in the range of 1000 to 10000 nM.
Turning to `CNC(=O)c1ccc(N2CCC(N3CCCC(c4nc5ccccc5c(=O)[nH]4)C3)CC2)c(Cl)n1` (single isomer, unassigned) [Compound 94a], the IC50 lay in the range of 10 to 100 nM.
With `CNC(=O)c1ccc(N2CCC(N3CCCC(c4nc5ccccc5c(=O)[nH]4)C3)CC2)c(Cl)n1` (single isomer, unassigned) [Compound 94b], the IC50 is less than 10 nM.
Still for that read-out and setting: then `CNC(=O)c1cnc(N2CCC(N3CCC(c4nc5ccccc5c(=O)[nH]4)C3)CC2)cn1` (single isomer, unassigned) [Compound 96a], with 10 to 100 nM; and `CNC(=O)c1cnc(N2CCC(N3CCC(c4nc5ccccc5c(=O)[nH]4)C3)CC2)cn1` (single isomer, unassigned) [Compound 96b], with 100 to 1000 nM.
`CNC(=O)c1ccc(N2CCC(N3CCC(c4nc(C)cc(=O)[nH]4)C3)CC2)cn1` (single isomer, unassigned) [Compound 97a]: the IC50 was greater than 10000 nM.
For `CNC(=O)c1ccc(N2CCC(N3CCC(c4nc(C)cc(=O)[nH]4)C3)CC2)cn1` (single isomer, unassigned) [Compound 97b], the IC50 lay within 100 to 1000 nM.
On the same count and under the same terms, then `CNC(=O)c1ccc(N2CCC(N3CCCC(c4nc5ncccc5c(=O)[nH]4)C3)CC2)cn1` (single isomer, unassigned) [Compound 98a], with 10 to 100 nM; and `CNC(=O)c1ccc(N2CCC(N3CCCC(c4nc5ncccc5c(=O)[nH]4)C3)CC2)cn1` (single isomer, unassigned) [Compound 98b], with 100 to 1000 nM; and `CNC(=O)c1cnc(N2CCC(N3CCCC(c4nc5ccccc5c(=O)[nH]4)C3)CC2)cn1` (single isomer, unassigned) [Compound 99a], with 1000 to 10000 nM.
As for `CNC(=O)c1cnc(N2CCC(N3CCCC(c4nc5ccccc5c(=O)[nH]4)C3)CC2)cn1` (single isomer, unassigned) [Compound 99b], the concentration for half-maximal inhibition (IC50) was 10 to 100 nM.
The same measure, in the same setting: for `CNC(=O)c1ccc(N2CCC(N3CCCC(c4cc5ccccc5c(=O)[nH]4)C3)CC2)cn1` (single isomer, unassigned) [Compound 100a] the value was less than 10 nM.

In another assay the target is T2, full length N-terminally FLAG-tagged PARP1. In words: PARP1 probe displacement HTRF assay. Particulars: PARP1 over PARP2, ratio Kd (PARP2)/Kd (PARP1), probe displacement HTRF.
Consider `CNC(=O)c1ccc(N2CCC(N3CCC(c4nc5cc(F)ccc5c(=O)[nH]4)C3)CC2)cn1` (single isomer, unassigned) [Compound 92b], for which the Selectivity result was “+++ (+++ indicate a value of at least 100)”.
For the compound `CNC(=O)c1ccc(N2CCC(N3CCCC(c4nc5ccncc5c(=O)[nH]4)C3)CC2)cn1` (single isomer, unassigned) [Compound 93a], the Selectivity result is reported as “+ (+ indicates a value of 10 to less than 50)”.
Still for that read-out and setting: for `CNC(=O)c1ccc(N2CCC(N3CCCC(c4nc5ccncc5c(=O)[nH]4)C3)CC2)cn1` (single isomer, unassigned) [Compound 93b] the value was “− (− indicates a value of less than 10)”; for `CNC(=O)c1ccc(N2CCC(N3CCCC(c4nc5ccccc5c(=O)[nH]4)C3)CC2)c(Cl)n1` (single isomer, unassigned) [Compound 94a], “+ (+ indicates a value of 10 to less than 50)”; for `CNC(=O)c1ccc(N2CCC(N3CCCC(c4nc5ccccc5c(=O)[nH]4)C3)CC2)c(Cl)n1` (single isomer, unassigned) [Compound 94b], “+++ (+++ indicate a value of at least 100)”.
Same read-out and setting: for `CNC(=O)c1cnc(N2CCC(N3CCC(c4nc5ccccc5c(=O)[nH]4)C3)CC2)cn1` (single isomer, unassigned) [Compound 96a] the value was “+ (+ indicates a value of 10 to less than 50)”; for `CNC(=O)c1cnc(N2CCC(N3CCC(c4nc5ccccc5c(=O)[nH]4)C3)CC2)cn1` (single isomer, unassigned) [Compound 96b], “− (− indicates a value of less than 10)”; for `CNC(=O)c1ccc(N2CCC(N3CCC(c4nc(C)cc(=O)[nH]4)C3)CC2)cn1` (single isomer, unassigned) [Compound 97a], “− (− indicates a value of less than 10)”.
As for `CNC(=O)c1ccc(N2CCC(N3CCC(c4nc(C)cc(=O)[nH]4)C3)CC2)cn1` (single isomer, unassigned) [Compound 97b], the Selectivity result is given as “− (− indicates a value of less than 10)”.
On to `CNC(=O)c1ccc(N2CCC(N3CCCC(c4nc5ncccc5c(=O)[nH]4)C3)CC2)cn1` (single isomer, unassigned) [Compound 98a], for which the Selectivity entry is reported as “+++ (+++ indicate a value of at least 100)”.
On to `CNC(=O)c1ccc(N2CCC(N3CCCC(c4nc5ncccc5c(=O)[nH]4)C3)CC2)cn1` (single isomer, unassigned) [Compound 98b], for which the Selectivity entry is “+ (+ indicates a value of 10 to less than 50)”.
Turning to `CNC(=O)c1cnc(N2CCC(N3CCCC(c4nc5ccccc5c(=O)[nH]4)C3)CC2)cn1` (single isomer, unassigned) [Compound 99a], the Selectivity entry was “− (− indicates a value of less than 10)”.
Still for that read-out and setting: for `CNC(=O)c1cnc(N2CCC(N3CCCC(c4nc5ccccc5c(=O)[nH]4)C3)CC2)cn1` (single isomer, unassigned) [Compound 99b] the value was “− (− indicates a value of less than 10)”; for `CNC(=O)c1ccc(N2CCC(N3CCCC(c4cc5ccccc5c(=O)[nH]4)C3)CC2)cn1` (single isomer, unassigned) [Compound 100a], “+++ (+++ indicate a value of at least 100)”.

The assay is the same for the next values; noted with them: read-out: PARP1 HTRF; binned Kd, PARP1 probe displacement HTRF.
With `CNC(=O)c1ccc(N2CCC(N3CCC(c4nc5cc(F)ccc5c(=O)[nH]4)C3)CC2)cn1` (single isomer, unassigned) [Compound 92b], the Kd was less than 10 nM.
As for `CNC(=O)c1ccc(N2CCC(N3CCCC(c4nc5ccncc5c(=O)[nH]4)C3)CC2)cn1` (single isomer, unassigned) [Compound 93a], the Kd lay in the range of 100 to 1000 nM.
For `CNC(=O)c1ccc(N2CCC(N3CCCC(c4nc5ccncc5c(=O)[nH]4)C3)CC2)cn1` (single isomer, unassigned) [Compound 93b], the Kd lay in the range of 1000 to 10000 nM.
On to `CNC(=O)c1ccc(N2CCC(N3CCCC(c4nc5ccccc5c(=O)[nH]4)C3)CC2)c(Cl)n1` (single isomer, unassigned) [Compound 94a], for which the Kd fell in the range of 10 to 100 nM.
Same read-out and setting: then `CNC(=O)c1ccc(N2CCC(N3CCCC(c4nc5ccccc5c(=O)[nH]4)C3)CC2)c(Cl)n1` (single isomer, unassigned) [Compound 94b], with less than 10 nM; and `CNC(=O)c1cnc(N2CCC(N3CCC(c4nc5ccccc5c(=O)[nH]4)C3)CC2)cn1` (single isomer, unassigned) [Compound 96a], with 10 to 100 nM; and `CNC(=O)c1cnc(N2CCC(N3CCC(c4nc5ccccc5c(=O)[nH]4)C3)CC2)cn1` (single isomer, unassigned) [Compound 96b], with 100 to 1000 nM.
Same read-out and setting: for `CNC(=O)c1ccc(N2CCC(N3CCC(c4nc(C)cc(=O)[nH]4)C3)CC2)cn1` (single isomer, unassigned) [Compound 97a] the value was greater than 10000 nM; for `CNC(=O)c1ccc(N2CCC(N3CCC(c4nc(C)cc(=O)[nH]4)C3)CC2)cn1` (single isomer, unassigned) [Compound 97b], 100 to 1000 nM; for `CNC(=O)c1ccc(N2CCC(N3CCCC(c4nc5ncccc5c(=O)[nH]4)C3)CC2)cn1` (single isomer, unassigned) [Compound 98a], 10 to 100 nM.
In the case of `CNC(=O)c1ccc(N2CCC(N3CCCC(c4nc5ncccc5c(=O)[nH]4)C3)CC2)cn1` (single isomer, unassigned) [Compound 98b], the Kd was in the range of 100 to 1000 nM.
Still for that read-out and setting: then `CNC(=O)c1cnc(N2CCC(N3CCCC(c4nc5ccccc5c(=O)[nH]4)C3)CC2)cn1` (single isomer, unassigned) [Compound 99a], with 1000 to 10000 nM; and `CNC(=O)c1cnc(N2CCC(N3CCCC(c4nc5ccccc5c(=O)[nH]4)C3)CC2)cn1` (single isomer, unassigned) [Compound 99b], with 100 to 1000 nM.
Same read-out and setting: for `CNC(=O)c1ccc(N2CCC(N3CCCC(c4cc5ccccc5c(=O)[nH]4)C3)CC2)cn1` (single isomer, unassigned) [Compound 100a] the value was less than 10 nM.
